Results: article PMC11555678, “Improved Broad Spectrum Antifungal Drug Synergies with Cryptomycin, a Cdc50-Inspired Antifungal Peptide” (ACS Infectious Diseases, 2024)
Values after ≈ are worked out from the molar mass of the structure shown. Like-named read-outs stand apart in the source and are kept apart here. Square brackets hold non-standard residues; d marks the D form. Peptide text beside a SMILES is read from it. * marks the point of attachment. Myristoyl = CCCCCCCCCCCCCC(=O)*; Orn = NCCC[C@H](N)C(=O)O

Key:
[1] = test system: C. neoformans H99; assay type: cell-based, Cryptococcus neoformans; conditions: for MIC of antifungal in combination with (FITC)KKOO / MIC of antifungal in combination with KKOO / MIC of antifungal in combination with KKOO-NH2: RPMI1640, 37 °C; for MIC of antifungal in combination with KKOO / MIC of antifungal in combination with KKOO-NH2: 48 h
Method: All microdilution assays with fungi were carried out in accordance with CLSI protocols from M27 for yeasts and M38 for filamentous fungi, respectively, unless otherwise specified.[64],[65] Briefly, 96-well plates were charged with RPMI1640 media, with operating volume in the first column, 200 μL, and half operating volume, 100 μL, in the remaining wells. Drug stock solution in DMSO was aliquoted into the first well in each row. Half of the volume in the dosed well was serially diluted 2-fold until column 11. Column 11 was used as the negative growth control, and column 12 was used as the positive growth control. ON yeast cultures in YPD were washed twice in DD-H2O, resuspended in PBS, and adjusted to 5000 cfu/mL in RPMI. The 96-well plate was inoculated with 100 μL aliquots of cell suspension per well. […]
(§1) To assess drug synergy, the initial media charged to the plate contained the peptide at twice the final operating concentration; the remaining processing steps were identical to the MIC experiment. Upon addition of 100 μL of inoculant, the final operating concentration was achieved. Control MIC plates were prepared alongside drug synergy plates to account for the day-to-day variability in any individual MIC. FIC index is computed using eq 1. All MIC assays and drug synergy assays were completed with two technical replicates per 96-well plate and a minimum of two biological replicates per drug combination. If a difference in MIC between the two technical replicates on the plate were observed, only the higher concentration was reported as the MIC to reduce the possibility of type 1 error (false positive) [drawing 1] 1

[2] = test system: C. glabrata FKS2-S663P; assay: microbe, parasite or virus in culture; assay type: cell-based, Candida glabrata; conditions: 48 h
Method: (§2) All microdilution assays with fungi were carried out in accordance with CLSI protocols from M27 for yeasts and M38 for filamentous fungi, respectively, unless otherwise specified.[64],[65] Briefly, 96-well plates were charged with RPMI1640 media, with operating volume in the first column, 200 μL, and half operating volume, 100 μL, in the remaining wells. Drug stock solution in DMSO was aliquoted into the first well in each row. Half of the volume in the dosed well was serially diluted 2-fold until column 11. Column 11 was used as the negative growth control, and column 12 was used as the positive growth control. ON yeast cultures in YPD were washed twice in DD-H2O, resuspended in PBS, and adjusted to 5000 cfu/mL in RPMI. The 96-well plate was inoculated with 100 μL aliquots of cell suspension per well. Plates were incubated at 37 °C for 2 days.

[3] = test system: C. glabrata FKS1-S629P; assay: microbe, parasite or virus in culture; assay type: cell-based, Candida glabrata; conditions: 48 h
Method: as §2

[4] = test system: C. glabrata 2001; assay: microbe, parasite or virus in culture; assay type: cell-based, Candida glabrata
Method: as §2

[5] = test system: Cn MRL862; assay type: cell-based, Cryptococcus neoformans; conditions: RPMI1640, 37 °C, 48 h
Method: as §2, §1

[6] = test system: C. auris B11245; assay: microbe, parasite or virus in culture; assay type: cell-based, Candida auris
Method: as §2

[7] = test system: Cn H99; assay: microbe, parasite or virus in culture; assay type: cell-based, Cryptococcus neoformans; conditions: for MIC: 37 °C, 48 h
Method: (§3) Previous studies have shown that modifying microbiological media with salts such as CaCl2 can have a drastic effect on the growth of fungi and their responses to antifungals.[19],[35] In the case of CaCl2, the divalent cation, Ca^2+, is involved in fungal cell stress response. To understand how the peptide activity may involve calcium and stress response, the MICs of KKOO, KKOO-NH2, FLC, and CAS were assessed as a function of the calcium concentration in liquid YPD media. It was observed that calcium enrichment completely desensitized the wild-type strain to KKOO and KKOO-NH2, Tables 7 and 8, respectively. Effects of calcium enrichment on the susceptibility of Cryptococcus to CAS similar to literature values were recorded, Supporting Information, Table S7.[35]
(§4) In order to control for the effects of enriching YPD with a divalent cation, MICs and ROS production were also measured as a function of the MgCl2 supplement at the same millimolar concentrations of cation as in the CaCl2-modified experiments. […] No peptide susceptibility changes were observed against Cn cdc50Δ in magnesium-enriched media, Table S9. ROS production in H99 induced by peptide exposure was inhibited after 30 min of treatment in the magnesium-enriched condition, similar to the levels observed in the calcium-enriched media at 16 μg/mL KKOO-NH2, Figure S1. […] The link between peptide activity and calcium homeostasis may be vital in understanding precisely how the peptide kills fungal cells and requires more research to elucidate.
as §2

[8] = test system: Cn cdc50Δ; assay: microbe, parasite or virus in culture; assay type: cell-based, Cryptococcus neoformans; conditions: for MIC: 37 °C, 48 h
Method: as §3, §4, §2

[9] = compound alone, RPMI1640, 37 °C

CCC(C)n1ncn(-c2ccc(N3CCN(c4ccc(OCC5COC(Cn6cncn6)(c6ccc(Cl)cc6Cl)O5)cc4)CC3)cc2)c1=O (centres unmarked) [ITR, itraconazole]
MIC of antifungal in combination with (FITC)KKOO ([1]; +0 μg/mL (FITC)KKOO): 0.125 µg/mL
MIC of antifungal in combination with KKOO ([1]; +0 μg/mL KKOO (control)): 0.125 µg/mL
MIC of antifungal in combination with KKOO-NH2 ([1]; +0 μg/mL KKOO-NH2 (control)): 0.125 µg/mL
MIC of antifungal in combination with KKOO-NH2 ([1]; +1 μg/mL KKOO-NH2): 0.031 µg/mL
MIC of antifungal in combination with KKOO ([1]; +1 μg/mL KKOO): 0.062 µg/mL
MIC of antifungal in combination with KKOO-NH2 ([1]; +2 μg/mL KKOO-NH2): 0.016 µg/mL
MIC of antifungal in combination with KKOO ([1]; +2 μg/mL KKOO): 0.016 µg/mL
MIC of antifungal in combination with (FITC)KKOO ([1]; +4 μg/mL (FITC)KKOO): 0.062 µg/mL
MIC of antifungal in combination with KKOO-NH2 ([1]; +4 μg/mL KKOO-NH2): 0.008 µg/mL
MIC of antifungal in combination with KKOO ([1]; +4 μg/mL KKOO): 0.016 µg/mL
MIC of antifungal in combination with (FITC)KKOO ([1]; +8 μg/mL (FITC)KKOO): 0.031 µg/mL
MIC of antifungal in combination with KKOO ([1]; +8 μg/mL KKOO): 0.008 µg/mL
reduction of MIC of antifungal ([1]; in the presence of 2 μg/mL KKOO-NH2, 48 h): 8 fold
MIC ([2]; Nakaseomyces glabratus, FKS2S663P): 0.125 µg/mL (≈ 0.177 µM)
MIC ([3]; Nakaseomyces glabratus, FKS1S629P): 0.125 µg/mL (≈ 0.177 µM)
MIC ([4]; Nakaseomyces glabratus, 2001, compound alone, RPMI1640, 37 °C, 48 h, read-out: MIC): 0.5 µg/mL (≈ 0.709 µM)
MIC of antifungal in combination with KKOO ([5]; +0 μg/mL KKOO (control)): 0.062 µg/mL
MIC of antifungal in combination with KKOO-NH2 ([5]; +0 μg/mL KKOO-NH2 (control)): 0.062 µg/mL
MIC of antifungal in combination with KKOO-NH2 ([5]; +1 μg/mL KKOO-NH2): 0.062 µg/mL
MIC of antifungal in combination with KKOO ([5]; +1 μg/mL KKOO): 0.031 µg/mL
MIC of antifungal in combination with KKOO-NH2 ([5]; +2 μg/mL KKOO-NH2): 0.016 µg/mL
MIC of antifungal in combination with KKOO ([5]; +2 μg/mL KKOO): 0.016 µg/mL
MIC of antifungal in combination with KKOO-NH2 ([5]; +4 μg/mL KKOO-NH2): 0.004 µg/mL
MIC of antifungal in combination with KKOO ([5]; +4 μg/mL KKOO): 0.556 µg/mL
MIC ([6]; Candidozyma auris, B11245, compound alone, RPMI1640, 37 °C, 48 h, * = paradoxical growth observed (CAS), read-out: MIC): 0.5 µg/mL (≈ 0.709 µM)

CCCCCCCCCCCCCC(=O)N[C@@H](Cc1c[nH]c2ccccc12)C(=O)NCC(=O)NCC(=O)N[C@H](C(=O)N[C@@H](CCCN)C(=O)N[C@@H](CCCN)C(=O)N[C@@H](CC(N)=O)C(=O)N[C@@H](Cc1ccc(O)cc1)C(=O)N[C@@H](C)C(N)=O)[C@@H](C)CC [KKOO-NH2] (Myristoyl-WGGI[Orn][Orn]NYA-NH2)
MIC [2, 9]: 8 µg/mL (≈ 6.57 µM)
MIC [3, 9]: 8 µg/mL (≈ 6.57 µM)
MIC ([4]; 2001, 48 h): 8 µg/mL (≈ 6.57 µM)
MIC (SAR screen peptides) ([4]; Table S1, unit and conditions not given (MICs elsewhere in μg/mL)): 8
MIC ([7]; YPD + 0 mM Ca2+): 8 µg/mL
MIC ([7]; YPD + 0 mM Mg2+): 8 µg/mL
increase of MIC ([7]; YPD +0 to +2.5 mM CaCl2): 16 fold
increase of MIC ([7]; YPD +0 to +20 mM MgCl2): 4 fold
MIC ([7]; YPD + 2.5 mM Ca2+): 128 µg/mL
MIC ([7]; YPD + 2.5 mM Mg2+): 8 µg/mL
MIC ([7]; YPD + 5 mM Ca2+): >128 µg/mL
MIC ([7]; YPD + 5 mM Mg2+): 16 µg/mL
MIC ([7]; YPD + 10 mM Ca2+): >128 µg/mL
MIC ([7]; YPD + 10 mM Mg2+): 16 µg/mL
MIC ([7]; YPD + 20 mM Ca2+): >128 µg/mL
MIC ([7]; YPD + 20 mM Mg2+): 32 µg/mL
MIC ([8]; YPD + 0 mM Ca2+): 2 µg/mL
MIC ([8]; YPD + 0 mM Mg2+, unit inferred): 4 µg/mL
increase of MIC (largest deviation) ([8]; YPD +0 to +5 mM CaCl2): 4 fold
MIC ([8]; YPD + 2.5 mM Ca2+): 4 µg/mL
MIC ([8]; YPD + 2.5 mM Mg2+, unit inferred): 4 µg/mL
MIC ([8]; YPD + 5 mM Ca2+): 8 µg/mL
MIC ([8]; YPD + 5 mM Mg2+, unit inferred): 4 µg/mL
MIC ([8]; YPD + 10 mM Ca2+): 8 µg/mL
MIC ([8]; YPD + 10 mM Mg2+, unit inferred): 4 µg/mL
MIC ([8]; YPD + 20 mM Ca2+): 4 µg/mL
MIC ([8]; YPD + 20 mM Mg2+, unit inferred): 4 µg/mL
MIC ([6]; B11245, 48 h): 16 µg/mL (≈ 13.1 µM)
